Several values for one entry are separate records, joined by “and”; a condition that tells them apart may be missing. Equal entries are not always repeated.
Tests used:
SAS (head & neck cancer) = experiment: Cell uptake assay in SAS cells; type: cell-based, human; conditions: 0.1 mM
Procedure: (§1) • 1.1.1 15 mL of cell culture medium was placed into a T225 flask. • 1.1.2 The flask was placed in a humidified 37° C., 5% CO2 incubator for 15 minutes to allow medium to equilibrate to the proper pH and temperature. • 1.1.3 The vial was removed from liquid nitrogen and thawed rapidly by placing at 37° C. in a water bath with gentle agitation for 1-2 minutes and then decontaminated by wiping with 70% ethanol before opening in a Class II biological safety cabinet. • 1.1.4 The vial contents were transferred dropwise into 10 mL of cell culture medium in a sterile 15 mL conical tube. • 1.1.5 The cells were centrifuged at 1,300 rpm for 5 minutes. • 1.1.6 The supernatant was aspirated and re-suspended the cells and transferred the cells into T225 flask containing cell culture medium.
(§2) • 1.2.1 Culture medium were renewed every 2-3 days. • 1.2.2 Keep the flask in a humidified 37° C., 5% CO2 incubator
(§3) Cells were harvested and diluted in culture medium to the designated concentration. Then the cells were cultured in T25 flasks, one T25 flask for one sample. 2.2 Formulation of test compounds • 2.2.1 L-Boronophenylalanine (L-BPA, 4-boron-L-phenylalanine, Purity: 95%, Chemical formula: C9H12BNO4, MW: 209.01, CAS: 76410-58-7) and fructose were dissolved in PBS at a molar ratio of 1:5, and then a 1.27 M ratio of 1 N NaOH is added. The mixture was stirred until L-BPA is completely dissolved, and the pH value was titrated to 7.2-7.4 with 1N HCl. • 2.2.2 For test compounds other than BPA, stock solutions were prepared of each compound in DMSO or fructose formulation at a concentration of 20 mM (such that final % DMSO in the cellular assay medium=0.5%)
(§4) • 2.3.1 The cells were seeded overnight (12-18 hours) to allow the cells to adhere well. • 2.3.2 The stock solution of each compound was added to each T25 flask such that the final concentration for each compound is 100 uM (0.1 mM). • 2.3.3 The flasks were placed in a 37° C., […] for 1 hour, 4 hour, and 24 hours, the cells were collected by using 0.25% Trypsin with 0.53 mM EDTA. 2.3.5 Centrifuged at 1,300 rpm for 5 min to collect cell pellets.

B16F10 (melanoma) = experiment: Cell uptake assay in B16F10 cells; type: cell-based, mouse; conditions: 0.1 mM
Procedure: as §1, §2, §3, §4

[1] = tested on: NIH-3T3 (normal cell line); experiment: Cell uptake assay in NIH-3T3 cells; type: cell-based, mouse; conditions: 0.1 mM
Procedure: as §1, §2, §3, §4

U87-MG (glioblastoma) = experiment: Cell uptake assay in U87-MG cells; type: cell-based, human; conditions: 0.1 mM
Procedure: as §1, §2
as §3, with “medium=0.5%) […]” for “medium=0.5%)”

[2] = tested on: SAS, B16F10, U87-MG relative to NIH-3T3; experiment: Cell uptake assays, cancer cell lines compared with normal cell line; type: cell-based, human
Procedure: as §1, §2
Cells were harvested and diluted in culture medium to the designated concentration. Then the cells were cultured in T25 flasks, one T25 flask for one sample. 2.2 Formulation of test compounds • 2.2.1 L-Boronophenylalanine (L-BPA, 4-boron-L-phenylalanine, Purity: 95%, Chemical formula: C9H12BNO4, MW: 209.01, CAS: 76410-58-7) and fructose were dissolved in PBS at a molar ratio of 1:5, and then a 1.27 M ratio of 1 N NaOH is added. […]

Compound	Cell uptake, Mean (ng/10^6 cell), SAS (SAS (head & neck cancer); 1 h)	Cell uptake, Mean (ng/10^6 cell), SAS (SAS (head & neck cancer); 4 h)	Cell uptake, Mean (ng/10^6 cell), SAS (SAS (head & neck cancer); 24 h)	Cell uptake, Mean (ng/10^6 cell), B16F10 (B16F10 (melanoma); 1 h)	Cell uptake, Mean (ng/10^6 cell), B16F10 (B16F10 (melanoma); 4 h)	Cell uptake, Mean (ng/10^6 cell), B16F10 (B16F10 (melanoma); 24 h)	Cell uptake, Mean (ng/10^6 cell), NIH-3T3 ([1]; 1 h)	Cell uptake, Mean (ng/10^6 cell), NIH-3T3 ([1]; 4 h)	Cell uptake, Mean (ng/10^6 cell), NIH-3T3 ([1]; 24 h)	Cell uptake, Mean (ng/10^6 cell), U87-MG (U87-MG (glioblastoma); 1 h)	Cell uptake, Mean (ng/10^6 cell), U87-MG (U87-MG (glioblastoma); 4 h)	Cell uptake, Mean (ng/10^6 cell), U87-MG (U87-MG (glioblastoma); 24 h)	Selective uptake by cancer cell lines relative to normal cell line ([2]; SAS, B16F10, U87-MG relative to NIH-3T3)	Uptake in cancer cells relative to Comparator Compounds A and B ([2]; cancer cells)	Cell uptake, Mean (ng/10^6 cell), SAS (SAS (head & neck cancer); 2 h)	Cell uptake, Mean (ng/10^6 cell), B16F10 (B16F10 (melanoma); 2 h)	Cell uptake, Mean (ng/10^6 cell), NIH-3T3 ([1]; 2 h)	Cell uptake, Mean (ng/10^6 cell), U87-MG (U87-MG (glioblastoma); 2 h)
N[C@@H](Cc1cccc(B(O)O)c1O)C(=O)O [Comparator Compound B, reference compound]	510 ng/10^6 cell	487 ng/10^6 cell	1465 ng/10^6 cell	131 ng/10^6 cell	248 ng/10^6 cell	662 ng/10^6 cell	186 ng/10^6 cell	122 ng/10^6 cell	217 ng/10^6 cell	380 ng/10^6 cell	519 ng/10^6 cell	250 ng/10^6 cell	–	–	–	–	–	–
N[C@@H](Cc1cccc(B(O)O)c1O)C(=O)O [Compound 1, (S)-2-amino-3-(3-borono-2-hydroxyphenyl)propanoic acid]	863 ng/10^6 cell	1400 ng/10^6 cell	2625 ng/10^6 cell	158 ng/10^6 cell	282 ng/10^6 cell	669 ng/10^6 cell	109 ng/10^6 cell	194 ng/10^6 cell	122 ng/10^6 cell	175 ng/10^6 cell	713 ng/10^6 cell	1315 ng/10^6 cell	selective partitioning into cancer cells relative to normal cells	increased uptake in cancer cells relative to Comparator Compounds A and B	–	–	–	–
N[C@@H](Cc1c(F)ccc(B(O)O)c1O)C(=O)O [Compound 3, (2S)-2-amino-3-[3-(dihydroxyboranyl)-6-fluoro-2-hydroxyphenyl]propanoic acid]	1320 ng/10^6 cell	1295 ng/10^6 cell	1580 ng/10^6 cell	66.5 ng/10^6 cell	255 ng/10^6 cell	196 ng/10^6 cell	105 ng/10^6 cell	196 ng/10^6 cell	182 ng/10^6 cell	307 ng/10^6 cell	621 ng/10^6 cell	555 ng/10^6 cell	–	–	–	–	–	–
N[C@@H](Cc1ccc(F)c(B(O)O)c1O)C(=O)O [Compound 4, (2S)-2-amino-3-[3-(dihydroxyboranyl)-4-fluoro-2-hydroxyphenyl]propanoic acid]	33.1 ng/10^6 cell	191 ng/10^6 cell	886 ng/10^6 cell	29.5 ng/10^6 cell	39.1 ng/10^6 cell	48.1 ng/10^6 cell	28.3 ng/10^6 cell	36.9 ng/10^6 cell	55.3 ng/10^6 cell	14.3 ng/10^6 cell	40 ng/10^6 cell	117 ng/10^6 cell	–	–	–	–	–	–
N[C@@H](Cc1cc(Cl)cc(B(O)O)c1O)C(=O)O [Compound 6, (2S)-2-amino-3-[5-chloro-3-(dihydroxyboranyl)-2-hydroxyphenyl]propanoic acid]	373 ng/10^6 cell	796 ng/10^6 cell	1735 ng/10^6 cell	39.6 ng/10^6 cell	75.9 ng/10^6 cell	222 ng/10^6 cell	20.3 ng/10^6 cell	59.8 ng/10^6 cell	50.8 ng/10^6 cell	58.6 ng/10^6 cell	171 ng/10^6 cell	244 ng/10^6 cell	–	–	–	–	–	–
N[C@@H](Cc1cc(F)cc(B(O)O)c1O)C(=O)O [Compound 8, (2S)-2-amino-3-13-(dihydroxyboranyl)-5-fluoro-2-hydroxyphenyllpropanoic acid]	561 ng/10^6 cell	693 ng/10^6 cell	1605 ng/10^6 cell	115 ng/10^6 cell	185 ng/10^6 cell	615 ng/10^6 cell	51.7 ng/10^6 cell	119 ng/10^6 cell	101 ng/10^6 cell	173 ng/10^6 cell	505 ng/10^6 cell	545 ng/10^6 cell	–	–	–	–	–	–
N[C@@H](Cc1ccc(B(O)O)cc1)C(=O)O [L-BPA, 4-Borono-L-phenylalanine]	425 ng/10^6 cell and 407 ng/10^6 cell and 260 ng/10^6 cell and 254 ng/10^6 cell and 218 ng/10^6 cell	379 ng/10^6 cell and 352 ng/10^6 cell and 251 ng/10^6 cell and 219 ng/10^6 cell and 217 ng/10^6 cell	423 ng/10^6 cell and 444 ng/10^6 cell and 501 ng/10^6 cell and 261 ng/10^6 cell and 345 ng/10^6 cell and 336 ng/10^6 cell	–	247 ng/10^6 cell and 224 ng/10^6 cell and 188 ng/10^6 cell and 191 ng/10^6 cell and 185 ng/10^6 cell	–	–	–	–	391 ng/10^6 cell and 343 ng/10^6 cell and 233 ng/10^6 cell and 196 ng/10^6 cell and 297 ng/10^6 cell	–	–	–	–	394 ng/10^6 cell	986 ng/10^6 cell	177 ng/10^6 cell	223 ng/10^6 cell

Source: US20240132524A1, “SMALL MOLECULES FOR BORON NEUTRON CAPTURE THERAPY” (Aviko Radiopharmaceuticals, LLC, priority 2022, published 2024)
